Laboratory results as given in patent US20050158371A1, “Novel external agent” (Sumitomo Pharmaceuticals Co., Ltd., priority 2002, published 2005).

Experiment: Serum concentration of leflunomide after transdermal or oral administration to adjuvant arthritis rats, LC-MS/MS (Experimental Example 5B)
Type: in vivo
Details: rat, leflunomide in serum, single oral administration 20 mg/kg
Description: The dosage form for external application of leflunomide as shown in Example was administered once to adjuvant arthritis rats prepared in the same manner as in Experimental Example 1B and the concentration of leflunomide in serum was measured using LC-MS/MS. In addition, the concentration in serum on simultaneous oral administration of leflunomide once (20 mg/kg) was measured and compared.

- AUC(0-t) (read-out: AUC, area under the drug concentration-time curve [AUC(0−T)]): 600 ng·h/mL
- Cmax (read-out: Cmax, maximum drug concentration): 502 ng/mL
- Tmax (read-out: tmax, times to reach maximum drug concentration): 30 min
SMILES: Cc1oncc1C(=O)Nc1ccc(C(F)(F)F)cc1 [leflunomide, N-(4′-trifluoromethylphenyl)-5-methylisoxazole-4-carboxamide]
